# According to the supplement of paper PMC10307832:
# Legend:
# Assay in all cases: relative viability (nuclei count vs DMSO), 5 days (fraction); higher = more cells survive
# QS11 + AZD7762 = compound: C1CC2=C(C1)C=C(C=C2)OC3=NC(=C4C(=N3)N(C=N4)CC5=CC=C(C=C5)C6=CC=CC=C6)N[C@@H](CC7=CC=CC=C7)CO [QS11] + NC(=O)Nc1cc(-c2cccc(F)c2)sc1C(=O)N[C@H]1CCCNC1 [AZD7762] (partner 0.2 µM)
# Procedure, shortened: (§1)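 Dosing by pin tool came one day after lung cancer cell lines were seeded in 1536-well plates, using either one drug or a fixed anchor-drug dose plus five library-drug doses (not always all listed) in √10 steps. After 5 days, nuclei were counted on 4× images. Relative viability is treated-well nuclei count divided by vehicle-well nuclei count, and values are medians of duplicate plates.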
# QS11 + Pemetrexed = compound: C1CC2=C(C1)C=C(C=C2)OC3=NC(=C4C(=N3)N(C=N4)CC5=CC=C(C=C5)C6=CC=CC=C6)N[C@@H](CC7=CC=CC=C7)CO [QS11] + Nc1nc2[nH]cc(CCc3ccc(C(=O)N[C@@H](CCC(=O)O)C(=O)O)cc3)c2c(=O)[nH]1 [Pemetrexed] (partner 0.2 µM)
# Procedure, shortened: as §1
# [1] = compound: C[As](C)SC[C@H](NC(=O)CC[C@H](N)C(=O)O)C(=O)NCC(=O)O [Darinaparsin] + CC(=O)Nc1cccc(-n2c(=O)n(C3CC3)c(=O)c3c(Nc4ccc(I)cc4F)n(C)c(=O)c(C)c32)c1 [Trametinib] (partner 0.02 µM)
# Procedure, shortened: as §1
# QS11 + Decitabine = compound: C1CC2=C(C1)C=C(C=C2)OC3=NC(=C4C(=N3)N(C=N4)CC5=CC=C(C=C5)C6=CC=CC=C6)N[C@@H](CC7=CC=CC=C7)CO [QS11] + Nc1ncn([C@H]2C[C@H](O)[C@@H](CO)O2)c(=O)n1 [Decitabine] (partner 2 µM)
# Procedure, shortened: as §1
Cell Line,relative viability (QS11 + AZD7762; first compound 0.08 µM),relative viability (QS11 + AZD7762; first compound 0.253 µM),relative viability (QS11 + AZD7762; first compound 0.8 µM),relative viability (QS11 + AZD7762; first compound 2.53 µM),relative viability (QS11 + AZD7762; first compound 8 µM),relative viability (QS11 + Pemetrexed; first compound 0.08 µM),relative viability (QS11 + Pemetrexed; first compound 0.253 µM),relative viability (QS11 + Pemetrexed; first compound 0.8 µM),relative viability (QS11 + Pemetrexed; first compound 2.53 µM),relative viability (QS11 + Pemetrexed; first compound 8 µM),relative viability ([1]; first compound 0.08 µM),relative viability ([1]; first compound 0.8 µM),relative viability ([1]; first compound 2.53 µM),relative viability ([1]; first compound 8 µM),relative viability (QS11 + Decitabine; first compound 0.08 µM),relative viability (QS11 + Decitabine; first compound 0.253 µM),relative viability (QS11 + Decitabine; first compound 2.53 µM),relative viability (QS11 + Decitabine; first compound 8 µM),relative viability (QS11 + Decitabine; first compound 0.8 µM)
H3255,0.931,0.946,0.634,1.01,0.902,0.578,0.632,0.532,0.562,0.53,0.595,0.812,0.574,0.62,0.578,0.64,0.556,0.674,
LOU-NH91,0.764,0.707,0.751,0.719,0.818,0.347,0.369,0.351,0.457,0.306,0.848,0.747,0.851,0.822,0.807,0.8,0.852,0.821,0.776
NCI-H2126,1.01,0.999,0.846,1.01,0.933,0.623,0.681,0.604,0.565,0.59,0.629,0.563,0.575,0.542,0.588,0.63,0.574,0.473,0.573
PC-14,0.276,0.278,0.369,0.318,0.443,,0.145,0.14,0.178,0.155,1.08,0.798,0.741,0.923,0.244,0.196,0.22,0.195,0.199
EMC-BAC-2,1.1,0.99,0.957,0.989,0.856,0.461,0.463,0.409,0.594,0.445,0.909,0.802,1.01,0.887,0.939,1.07,0.913,0.854,0.842
HCC-78,0.677,0.527,0.552,0.703,0.703,0.918,0.935,0.894,0.936,0.857,0.823,0.673,0.879,1.24,0.687,0.772,0.797,0.719,0.662
SK-LU-1,,,,,,0.993,1.07,0.913,0.835,0.781,0.625,0.401,0.382,0.521,0.586,0.59,0.6,0.57,0.595
ABC-1,0.74,0.776,0.732,0.774,0.843,,,,,,,,,,0.946,1.04,1.12,0.949,0.907
LK-2,0.388,0.643,0.527,0.412,0.455,0.241,0.318,0.267,0.27,0.284,0.936,0.61,0.847,0.878,0.246,0.332,0.288,0.23,0.37
NCI-H23,0.229,0.252,0.278,0.208,0.216,0.766,0.582,0.694,0.657,0.689,0.402,0.339,0.43,0.409,0.282,0.305,0.292,0.317,0.311
NCI-H2228,,,,,,0.342,0.337,0.324,0.374,0.372,0.563,0.382,0.462,0.354,,,,,
NCI-H441,1.02,1.39,0.963,0.964,0.942,0.252,0.275,0.233,0.277,0.282,0.507,0.471,0.429,0.295,0.236,0.215,0.234,0.225,0.254
NCI-H460,0.703,0.644,0.493,0.638,0.889,0.056,0.0683,0.0585,0.0792,0.0751,0.312,0.329,0.12,0.166,0.578,0.477,0.503,0.382,0.298
LU99A,0.326,0.348,0.398,0.362,0.239,0.169,0.172,0.173,0.169,0.168,0.529,0.62,0.545,0.55,0.873,0.967,0.922,0.931,0.963
NCI-H358,0.542,0.474,0.529,0.6,0.681,0.167,0.175,0.146,0.186,0.168,0.112,0.129,0.134,0.145,0.213,0.213,0.266,0.207,0.227
